# Assay results as given in paper PMC8074941, “Synthesis of cyclotetrapeptide analogues of c-PLAI and evaluation of their antimicrobial properties” (Royal Society Open Science, 2021).
# Where two headings read alike, the source gives them in different places. Where a SMILES comes first, the peptide text is derived from it.
# Columns and labels:
# K. pneumonia ATCC 2357 = test: microbe, parasite or virus in culture; conditions: for minimum inhibitory concentration (MIC) K. pneumonia ATCC 2357: ATCC 2357, 18 h
# Procedure: (§1) Tools and materials were sterilized in an autoclave for 15 min at 121°C. Bacterial culture was grown in agar media (Mueller Hinton agar) by picking some bacterial colony using an inoculating loop, followed by incubation at 37°C for 24 h. Bacterial culture was then suspended in liquid media (Mueller Hinton Broth). The suspended bacterial culture was then incubated at 37°C for 24 h and standardized equal to 0.5 Mc Farland (2 × 10^8 CFU ml^−1). The culture was diluted into the concentration of 5 × 10^5 CFU ml^−1.
# (§2) Six tetrapeptides and six cyclotetrapeptides were dissolved in DMSO 2% with a concentration of 1 µg mL^−1. Each solution was dissolved gradually. Subsequently, 12 sample solutions, ciprofloxacin, nystatin, ketoconazole and DMSO 2% were incubated on a 96-well microplate at 37°C for 18 h. The result was interpreted using a spectrophotometer, with a wavelength of 600 nm. MIC was measured as the percentage of microbial inhibition and cell death.
# B. cereus ATCC 11778 = test: microbe, parasite or virus in culture
# Procedure: as §1, §2
# E. coli ATCC 11229 = test: microbe, parasite or virus in culture; conditions: for minimum inhibitory concentration (MIC) E. coli ATCC 11229: ATCC 11229, 18 h
# Procedure: as §1, §2
# S. aureus ATCC 6538 = test: microbe, parasite or virus in culture
# Procedure: as §1, §2
# [1] = head-to-tail lactamisation of linear tetrapeptide (N-terminal Pro amine + C-terminal Ile acid), HATU (2 equiv), DIPEA (3 equiv); conditions: the molecule shown is the open-chain precursor; 12-membered ring; CH2Cl2 (with ca. 0.2-0.5% DMF); 0.4 mM; 25.0 °C; 1.5 h
# T. mentagrophyte = test: microbe, parasite or virus in culture; conditions: 18 h
# Procedure: (§3) Tools and materials were sterilized in an autoclave for 15 min at 121°C. Fungal culture was grown in agar media (Potato Dextrose agar) by picking some fungal colony using an inoculating loop, followed by incubation at 30°C for 24–48 h. Fungal culture was then suspended in liquid media (Potato Dextrose Broth). The suspended fungal culture was then incubated for 24–48 h at 30°C. The suspended fungal culture was then incubated at 30°C for 24 h and standardized equal to 0.5 Mc Farland (2 × 10^8 CFU ml^−1). The culture was diluted into the concentration of 5 × 10^5 CFU ml^−1.
# as §2
# C. albicans ATCC 10231 = tested on: C. albicans ATCC 10231
# Procedure: as §3, §2
# [2] = Potato Dextrose Broth, 5 × 10^5 CFU ml^−1, DMSO 2%, 96-well microplate, 37°C, 18 h, read at 600 nm, single experiment
# [3] = Mueller Hinton Broth, 5 × 10^5 CFU ml^−1, DMSO 2%, 96-well microplate, 37°C, 18 h, read at 600 nm, single experiment
minimum inhibitory concentration (MIC) K. pneumonia ATCC 2357 (K. pneumonia ATCC 2357),"minimum inhibitory concentration (MIC) B. cereus ATCC 11778 (B. cereus ATCC 11778; ATCC 11778, 18 h)",minimum inhibitory concentration (MIC) E. coli ATCC 11229 (E. coli ATCC 11229),"minimum inhibitory concentration (MIC) S. aureus ATCC 6538 (S. aureus ATCC 6538; ATCC 6538, 18 h)","minimum inhibitory concentration (MIC) C. albicans ATCC 10231 (C. albicans ATCC 10231; ATCC 10231, 18 h)",minimum inhibitory concentration (MIC) T. mentagrophyte (T. mentagrophyte),SMILES,"ring closure, isolated yield [1]",also measured
,,,,,,"O=C(O)c1cn(C2CC2)c2cc(N3CCNCC3)c(F)cc2c1=O [Ciprofloxacin, reference compound]",,"MIC (K. pneumonia ATCC 2357; Klebsiella pneumoniae, ATCC2357, 18 h, read-out: minimum inhibitory concentration (MIC) K. pneumonia ATCC 2357): 0.391 µg/mL; MIC (B. cereus ATCC 11778; Bacillus cereus, ATCC11778, 18 h, read-out: minimum inhibitory concentration (MIC) B. cereus ATCC 11778): 0.195 µg/mL; MIC (E. coli ATCC 11229; Escherichia coli, ATCC11229, 18 h, read-out: minimum inhibitory concentration (MIC) E. coli ATCC 11229): 1.56 µg/mL; MIC (S. aureus ATCC 6538; Staphylococcus aureus, ATCC6538, 18 h, read-out: minimum inhibitory concentration (MIC) S. aureus ATCC 6538): 0.098 µg/mL"
,,,,,,CC[C@H](C)[C@H](NC(=O)[C@H](C)NC(=O)[C@H](CC(C)C)NC(=O)[C@@H]1CCCN1)C(=O)O [H-Pro-Leu-Ala-Ile-OH],70%,
,,,,,,CC[C@H](C)[C@H](NC(=O)[C@H](Cc1ccccc1)NC(=O)[C@H](CC(C)C)NC(=O)[C@@H]1CCCN1)C(=O)O [H-Pro-Leu-Phe-Ile-OH],46%,
,,,,,,CC[C@H](C)[C@H](NC(=O)[C@@H]1CCCN1C(=O)[C@H](CC(C)C)NC(=O)[C@@H]1CCCN1)C(=O)O [H-Pro-Leu-Pro-Ile-OH],53%,
,,,,,,CC[C@H](C)[C@H](NC(=O)[C@@H](NC(=O)[C@H](CC(C)C)NC(=O)[C@@H]1CCCN1)C(C)C)C(=O)O [H-Pro-Leu-Val-Ile-OH],52%,
,,,,,,CC[C@H](C)[C@H](NC(=O)[C@H](C)NC(=O)[C@H](CCCCNC(=O)OC(C)(C)C)NC(=O)[C@@H]1CCCN1)C(=O)O [H-Pro-Lys(Boc)-Ala-Ile-OH],43%,
,,,,,,CC[C@H](C)[C@H](NC(=O)[C@H](Cc1ccccc1)NC(=O)[C@H](CCCCNC(=O)OC(C)(C)C)NC(=O)[C@@H]1CCCN1)C(=O)O [H-Pro-Lys(Boc)-Phe-Ile-OH],50%,
,,,,,,"CC(=O)N1CCN(c2ccc(OCC3COC(Cn4ccnc4)(c4ccc(Cl)cc4Cl)O3)cc2)CC1 (stereo not drawn) [Ketokonazole, reference compound]",,"MIC (T. mentagrophyte; Trichophyton mentagrophytes, read-out: minimum inhibitory concentration (MIC) T. mentagrophyte): 312 µg/mL"
,,,,,,"C[C@@H]1[C@H](O)[C@@H](C)/C=C/C=C/CC/C=C/C=C/C=C/C=C/C(O[C@H]2O[C@H](C)[C@@H](O)[C@H](N)[C@@H]2O)CC2O[C@](O)(CC(O)C(O)CCC(O)CC(O)CC(O)CC(=O)O[C@H]1C)CC(O)C2C(=O)O (stereo partly drawn) [Nystatin, reference compound]",,minimum inhibitory concentration (MIC) C. albicans ATCC 10231 (C. albicans ATCC 10231; [2]): 4.88 µg/mL
500 µg/mL,500 µg/mL,250 µg/mL,500 µg/mL,250 µg/mL,500 µg/mL,CC[C@H](C)[C@H](NC(=O)[C@H](C)NC(=O)[C@H](CCCCN)NC(=O)[C@@H]1CCCN1)C(=O)O [PKAI] (H-PKAI-OH),,
500 µg/mL,250 µg/mL,250 µg/mL,250 µg/mL,250 µg/mL,500 µg/mL,CC[C@H](C)[C@H](NC(=O)[C@H](Cc1ccccc1)NC(=O)[C@H](CCCCN)NC(=O)[C@@H]1CCCN1)C(=O)O [PKFI] (H-PKFI-OH),,
250 µg/mL,,>1000 µg/mL,>1000 µg/mL,>1000 µg/mL,,CC[C@H](C)[C@H](NC(=O)[C@H](C)NC(=O)[C@H](CC(C)C)NC(=O)[C@@H]1CCCN1)C(=O)O [PLAI] (H-PLAI-OH),,
>1000 µg/mL,500 µg/mL,>1000 µg/mL,>1000 µg/mL,>1000 µg/mL,,CC[C@H](C)[C@H](NC(=O)[C@H](Cc1ccccc1)NC(=O)[C@H](CC(C)C)NC(=O)[C@@H]1CCCN1)C(=O)O [PLFI] (H-PLFI-OH),,
500 µg/mL,250 µg/mL,500 µg/mL,500 µg/mL,>1000 µg/mL,500 µg/mL,CC[C@H](C)[C@H](NC(=O)[C@@H]1CCCN1C(=O)[C@H](CC(C)C)NC(=O)[C@@H]1CCCN1)C(=O)O [PLPI] (H-PLPI-OH),,
500 µg/mL,500 µg/mL,500 µg/mL,>1000 µg/mL,>1000 µg/mL,,CC[C@H](C)[C@H](NC(=O)[C@@H](NC(=O)[C@H](CC(C)C)NC(=O)[C@@H]1CCCN1)C(C)C)C(=O)O [PLVI] (H-PLVI-OH),,
250 µg/mL,125 µg/mL,62.50 µg/mL,125 µg/mL,125 µg/mL,125 µg/mL,"CC[C@H](C)[C@@H]1NC(=O)[C@H](C)NC(=O)[C@H](CCCCN)NC(=O)[C@@H]2CCCN2C1=O [c-PKAI, cyclo-(pro-lys-ala-ile)] (cyclo(PKAI))",,
250 µg/mL,125 µg/mL,125 µg/mL,500 µg/mL,500 µg/mL,250 µg/mL,"CC[C@H](C)[C@@H]1NC(=O)[C@H](Cc2ccccc2)NC(=O)[C@H](CC(C)C)NC(=O)[C@@H]2CCCN2C1=O [c-PLFI, cyclo-(pro-leu-phe-ile)] (cyclo(PLFI))",,
250 µg/mL,,125 µg/mL,250 µg/mL,>1000 µg/mL,,"CC[C@H](C)[C@@H]1NC(=O)[C@@H]2CCCN2C(=O)[C@H](CC(C)C)NC(=O)[C@@H]2CCCN2C1=O [c-PLPI, cyclo(pro-leu-pro-ile)] (cyclo(PLPI))",,
250 µg/mL,125 µg/mL,125 µg/mL,500 µg/mL,500 µg/mL,62.50 µg/mL,"CC[C@H](C)[C@@H]1NC(=O)[C@H](C(C)C)NC(=O)[C@H](CC(C)C)NC(=O)[C@@H]2CCCN2C1=O [c-PLVI, cyclo-(pro-leu-val-ile)] (cyclo(PLVI))",,

SMILES,minimum inhibitory concentration (MIC) K. pneumonia ATCC 2357 (K. pneumonia ATCC 2357),"minimum inhibitory concentration (MIC) B. cereus ATCC 11778 (B. cereus ATCC 11778; ATCC 11778, 18 h)",minimum inhibitory concentration (MIC) E. coli ATCC 11229 (E. coli ATCC 11229),"minimum inhibitory concentration (MIC) S. aureus ATCC 6538 (S. aureus ATCC 6538; ATCC 6538, 18 h)","minimum inhibitory concentration (MIC) C. albicans ATCC 10231 (C. albicans ATCC 10231; ATCC 10231, 18 h)",minimum inhibitory concentration (MIC) T. mentagrophyte (T. mentagrophyte),"ring closure, isolated yield [1]",also measured
"CC[C@H](C)[C@@H]1NC(=O)[C@H](Cc2ccccc2)NC(=O)[C@H](CCCCN)NC(=O)[C@@H]2CCCN2C1=O [c-PKFI, cyclo-(pro-lys-phe-ile)] (cyclo(PKFI))",250 µg/mL,,31.25 µg/mL,,,125 µg/mL,,minimum inhibitory concentration (MIC) B. cereus ATCC 11778 (B. cereus ATCC 11778; [3]): 62.5 µg/mL; minimum inhibitory concentration (MIC) S. aureus ATCC 6538 (S. aureus ATCC 6538; [3]): 62.5 µg/mL; minimum inhibitory concentration (MIC) C. albicans ATCC 10231 (C. albicans ATCC 10231; [2]): 62.50 µg/mL
